In the supplement of paper PMC7840683:
Structures can show the parent of a compound that is named as a salt. ± gives the standard deviation of the averaged measurements.

Test system: HepaRG
Assay: LDH release cytotoxicity, % of total lysis control; higher = more cytotoxic
Details: 48 h
In short: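 Single-lot HepaRG cells in collagen I-coated 96-well plates were treated for 48 h in serum-free induction medium containing 0.5% DMSO with test chemicals in eight-point half-log series up to 100 µM. For total lysis, wells received 0.1% Triton X. LDH in 50 µL spent medium was assayed by resorufin fluorescence with CytoTox-ONE. Percent cytotoxicity was normalized to the on-plate vehicle and total lysis controls, with duplicates averaged.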

Compound | LDH release cytotoxicity (0.03162 µM) [%] | LDH release cytotoxicity (0.1 µM) [%] | LDH release cytotoxicity (0.3162278 µM) [%] | LDH release cytotoxicity (1 µM) [%] | LDH release cytotoxicity (3.16228 µM) [%] | LDH release cytotoxicity (10 µM) [%] | LDH release cytotoxicity (31.6228 µM) [%] | LDH release cytotoxicity (100 µM) [%] | LDH release cytotoxicity (0.002846 µM) [%] | LDH release cytotoxicity (0.009 µM) [%] | LDH release cytotoxicity (0.02846 µM) [%] | LDH release cytotoxicity (0.09 µM) [%] | LDH release cytotoxicity (0.284605 µM) [%] | LDH release cytotoxicity (0.9 µM) [%] | LDH release cytotoxicity (2.84605 µM) [%] | LDH release cytotoxicity (9 µM) [%] | LDH release cytotoxicity (0.031623 µM) [%] | LDH release cytotoxicity (0.316228 µM) [%]
O=c1ccc2ccccc2o1 [Coumarin] | -1.09 ± 0.14 | -0.766 ± 1.4 | -0.788 ± 0.28 | -1.992 ± 0.0095 | -1.12 ± 0.68 | -2.38 ± 1.8 | -0.666 ± 0.38 | 6.17 ± 9.2 | – | – | – | – | – | – | – | – | – | –
C#CC(O)C(CC)CCCC (centres undefined) [4-Ethyloct-1-yn-3-ol] | -1.1 ± 1.3 | -0.852 ± 0.24 | -1.73 ± 0.62 | -1.75 ± 0.33 | -0.91 ± 0.66 | -1.32 ± 0.19 | -1.07 ± 0.15 | 0.266 ± 0.29 | – | – | – | – | – | – | – | – | – | –
CON=C(C1=NOCCO1)c1ccccc1Oc1ncnc(Oc2ccccc2Cl)c1F [Fluoxastrobin] | -1.84 ± 0.41 | -1.61 ± 0.52 | -0.5866 ± 0.0016 | 0.517 ± 2.5 | -0.886 ± 0.77 | -0.0116 ± 2.9 | 13.1 ± 0.82 | 33.8 ± 4 | – | – | – | – | – | – | – | – | – | –
CCCOc1sc(C(=O)N2CCC(c3cc(CN)ccc3F)CC2)c(C)c1Br [AVE8923] | – | – | – | – | – | – | – | – | 0.846 ± 0.37 | -1.04 ± 0.12 | -1.76 ± 0.7 | -1.75 ± 0.022 | -1.48 ± 0.47 | -1.21 ± 0.12 | -0.426 ± 0.15 | -0.0454 ± 0.26 | – | –
O=S(=O)(O)C(F)(F)C(F)(F)C(F)(F)C(F)(F)C(F)(F)C(F)(F)C(F)(F)C(F)(F)F [Perfluorooctanesulfonic acid] | -1.36 ± 0.32 | -1.86 ± 0.5 | -1.14 ± 0.19 | -1.91 ± 0.49 | -1.26 ± 0.23 | -2 ± 0.026 | -0.893 ± 0.12 | 19.6 ± 3.8 | – | – | – | – | – | – | – | – | – | –
CCOC(=O)C(C)OC(=O)c1cc(Oc2ccc(C(F)(F)F)cc2Cl)ccc1[N+](=O)[O-] (centres undefined) [Lactofen] | -1.17 ± 0.45 | -0.64 ± 0.62 | -0.974 ± 0.24 | -1.12 ± 0.48 | -0.601 ± 0.34 | -0.515 ± 0.76 | -0.447 ± 0.37 | 0.298 ± 0.45 | – | – | – | – | – | – | – | – | – | –
O=C(N[C@H]1CN2CCC1CC2)c1cc2ccoc2cn1 [(R)-N-(Quinuclidin-3-yl)furo(2,3-C)pyridine-5-carboxamide] | -0.025 ± 0.11 | 1.01 ± 0.6 | 0.216 ± 0.84 | 0.437 ± 0.39 | 1.24 ± 0.3 | 0.814 ± 0.5 | 1.28 ± 0.19 | 1.77 ± 0.61 | – | – | – | – | – | – | – | – | – | –
Clc1cccc(Cl)c1Cl [1,2,3-Trichlorobenzene] | – | -2.59 ± 0.72 | – | -2.67 ± 0.31 | -3.67 ± 0.82 | -2.75 ± 0.99 | -2 ± 0.85 | -0.185 ± 0.67 | – | – | – | – | – | – | – | – | -0.151 ± 0.71 | -3.02 ± 0.044
O=C(O)c1ccc([N+](=O)[O-])cc1 [4-Nitrobenzoic acid] | -2.11 ± 0.46 | -1.22 ± 0.03 | -0.728 ± 0.58 | -0.721 ± 1.3 | -1.62 ± 0.43 | -0.906 ± 0.7 | -0.392 ± 0.1 | 1.32 ± 1.1 | – | – | – | – | – | – | – | – | – | –
CCc1cccc(CC)c1N [2,6-Diethylaniline] | -1.27 ± 1.1 | -2.24 ± 0.81 | -1.42 ± 0.19 | -0.395 ± 0.46 | -0.592 ± 0.21 | -1.25 ± 1.1 | -0.819 ± 0.47 | -0.482 ± 0.8 | – | – | – | – | – | – | – | – | – | –
O=S1OCC2C(CO1)C1(Cl)C(Cl)=C(Cl)C2(Cl)C1(Cl)Cl (centres undefined) [Endosulfan] | 0.0956 ± 0.07 | -0.361 ± 0.27 | -0.482 ± 0.4 | -0.273 ± 0.024 | -0.151 ± 0.84 | 0.616 ± 0.33 | -0.612 ± 0.076 | 14.5 ± 0.024 | – | – | – | – | – | – | – | – | – | –
Nc1ccc(-c2ccc(N)cc2)cc1 [Benzidine] | -0.869 ± 4.3 | -2.2 ± 0.13 | -3.09 ± 0.054 | -2.37 ± 0.27 | -2.3 ± 0.28 | 0.338 ± 4 | -0.733 ± 0.045 | 0.306 ± 0.029 | – | – | – | – | – | – | – | – | – | –
CC1(C)C(C=C(Cl)Cl)C1C(=O)OC(C#N)c1ccc(F)c(Oc2ccccc2)c1 (centres undefined) [Cyfluthrin] | – | -1.05 ± 0.37 | – | -1.61 ± 2.3 | -1.18 ± 0.56 | -0.972 ± 1.4 | -0.561 ± 1.3 | -0.122 ± 0.2 | – | – | – | – | – | – | – | – | 0.499 ± 1.5 | -1.18 ± 2.4
Nc1cccc2c(N)cccc12 [1,5-Naphthalenediamine] | -0.228 ± 0.2 | -1.23 ± 0.16 | -1.58 ± 0.12 | -2.39 ± 0.034 | -1.95 ± 0.3 | -1.12 ± 0.45 | -1.51 ± 0.7 | 0.44 ± 0.38 | – | – | – | – | – | – | – | – | – | –
N#Cc1cccnc1 [3-Pyridinecarbonitrile] | -1.36 ± 2 | -2.41 ± 0.16 | -2.8 ± 0.062 | -2.872 ± 0.0079 | -3.04 ± 0.12 | -2.26 ± 0.059 | -2.04 ± 0.41 | -1.31 ± 0.76 | – | – | – | – | – | – | – | – | – | –
COc1cc(-c2ccc(N)c(OC)c2)ccc1N [3,3'-Dimethoxybenzidine dihydrochloride] | -1.44 ± 0.28 | -1.17 ± 0.44 | -1.43 ± 0.26 | -2.08 ± 0.059 | -1.15 ± 0.23 | -0.317 ± 0.23 | 0.438 ± 1 | 3.4 ± 0.6 | – | – | – | – | – | – | – | – | – | –
CCC(C)c1ccc(O)cc1 (centres undefined) [4-(Butan-2-yl)phenol] | -1.68 ± 0.31 | -2.9 ± 0.076 | -2.9 ± 0.23 | -3.15 ± 0.78 | -2.86 ± 0.48 | -2.62 ± 0.47 | -1.77 ± 0.96 | -0.982 ± 0.8 | – | – | – | – | – | – | – | – | – | –
CC(C)(c1ccccc1)c1ccc(O)cc1 [4-Cumylphenol] | -1.06 ± 1.8 | 0.26 ± 0.48 | -1.3 ± 0.86 | -2.27 ± 0.56 | -0.891 ± 1.4 | -0.313 ± 0.88 | 2.91 ± 0.44 | 111 ± 5.5 | – | – | – | – | – | – | – | – | – | –
